Series [1] deals with T1, Hb (Homo sapiens, UniProt P69905). As to the kind of experiment: Hb modification (drug-adduct formation) in SS blood suspensions by cation-exchange HPLC. Format: binding. Also on record: Blood suspensions from subjects with homozygous SCD; from tissue; host or cells: blood suspensions (20% hematocrit) from donors with homozygous SCD; lysates of the treated red cells. Particulars: 2 mM, 4 biological replicates. Here is the method:
All compounds (Comp 1-13) and comparator molecules (VZHE-039, PP-14, INN-310, and Voxelotor) were evaluated following established procedures. Blood samples from individual donors with homozygous SCD (obtained with informed consent) were diluted using Hemox buffer solution with the addition of glucose (10 mM) and BSA (0.2%) to adjust hematocrit of the blood suspensions to 20%, which standardizes the procedure to normalize the ratio of RBCs to drug, for assay consistency and reproducibility. Briefly, blood suspensions were incubated under room air in the presence of various concentrations of test compounds (0-2 mM) at 37° C. for 1 hour in 96-well round bottom plates. Subsequently, the suspensions were incubated with a hypoxic gas mixture (2.5% Oxygen gas/balance Nitrogen gas) at 37° C. for up to 2 hours prior to fixation with 2% glutaraldehyde solution without exposure to air. The fixated blood aliquots were evaluated by microscopic morphological analysis (image analysis on Image J software) to identify the proportion of sickled and non-sickled RBCs, and sickle inhibition calculated based on the % change from negative control (DMSO).
The residual samples were then washed in phosphate-buffered saline, and hemolyzed in hypotonic lysis buffer, with or without sodium borohydride (50 mM). Aliquots obtained from the lysates with or without sodium borohydride (to reduce Schiff base adducts) were also assessed for level of Hb modification (drug-adduct formation) by cation-exchange HPLC (Hitachi D-7000 Series, Hitachi Instruments, Inc., San Jose, CA) with a weak cation-exchange column (Poly CAT A: 50 mm×4.6 mm, Poly LC, Inc., Columbia, MD). Hemoglobin isotype peaks are eluted with a linear gradient of phase B from 0% to 80% at A410 nm (Mobile Phase A: 40 mM Bis-Tris, 2 mM KCN, pH 6.9; Phase B: 40 mM Bis-Tris, 2 mM KCN, 0.2 M sodium chloride, pH 6.55). Clarified lysate from normal human adult […] (Hb A), as well as commercial standards containing approximately equal amounts of Hb F, A, S and C (Helena Laboratories, Beaumont, TX), were utilized as reference isotypes. Reduced samples were used to assess “fixed adduct” formation (dependent on RBC membrane permeability), whereas non-reduced samples assessed drug-adduct formation independent of drug permeability.
Target sequence in this assay (P69905 2-142): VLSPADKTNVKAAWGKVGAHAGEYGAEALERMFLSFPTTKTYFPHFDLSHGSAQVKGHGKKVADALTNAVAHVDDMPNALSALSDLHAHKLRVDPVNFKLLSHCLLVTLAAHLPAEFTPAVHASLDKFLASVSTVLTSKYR
Target sequence in this assay (P68871 with tags, fused parts or gaps E7V partner): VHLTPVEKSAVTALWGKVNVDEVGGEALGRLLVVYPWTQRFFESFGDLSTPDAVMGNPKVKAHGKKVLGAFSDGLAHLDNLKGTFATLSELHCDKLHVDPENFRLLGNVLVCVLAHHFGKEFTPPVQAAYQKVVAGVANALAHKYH

The nature of series [2]: Single-dose oral pharmacokinetics in rats. Format: in vivo, Sprague Dawley rats. The note with it: Sprague Dawley, rat; single oral dose 100 mg/kg, male rats, whole blood. The protocol:
Single doses of each compound were administered as oral suspensions by gavage in 0.5% carboxy methylcellulose at 100 mg/kg. Whole blood levels were collected for at least 72 hours after dose administration. Bioanalyses were performed with liquid chromatography-tandem mass spectrometry […].
Single-dose pharmacokinetics (PK) in male Sprague Dawley (SD) rats (n=4) were assessed for each compound, and the maximum or peak whole blood concentration and area under the curve are shown in Table 5.

The target of series [3] is T1, Hb. As to the kind of experiment: Drug partitioning studies, fixed and unfixed Hb adducts in non-sickling AA blood. Also on record: Hemoglobin modification, studies using non-sickling AA blood; from tissue; host or cells: non-sickling (AA) human blood, red blood cells. The note with it: 2 mM; for Fixed Adducts (%) / Unfixed Adduct (%): 6 biological replicates; for Partitioning Ratio (%): fixed relative to unfixed adducts. Format: cell-based. The protocol:
RBC partitioning studies were conducted both for SS RBCs following sickling studies above, or as separate independent studies with non-sickle blood. Briefly, aliquots of blood samples, which had been incubated with test molecules, were lysed either in deionized water (un-fixed), or in water containing 50 mM sodium borohydride (fixed). Samples were subjected to cation exchange HPLC analyses, as described above. Modified […] (Hb adducts) was determined as a proportion of total Hb in each sample, and partitioning ratio was determined as the relative fraction of Hb modification of fixed samples compared to corresponding non-fixed samples. The partitioning ratio is the relative fraction of Hb that was modified intracellularly by molecules that permeated the RBC membrane, as compared to unfixed adducts which reflect Hb binding without RBC membrane permeation.
Target sequence in this assay (P69905 2-142 limits assumed): as the sequence (P69905 2-142) above
Target sequence in this assay (P68871 2-147 partner limits assumed): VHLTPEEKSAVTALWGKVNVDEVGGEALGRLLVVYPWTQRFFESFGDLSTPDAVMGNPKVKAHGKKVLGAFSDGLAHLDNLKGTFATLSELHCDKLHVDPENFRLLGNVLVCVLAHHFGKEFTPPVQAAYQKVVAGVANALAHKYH

The values that follow come from patent US20240109843A1, “BENZALDEHYDE COMPOUNDS WITH DIRECT POLYMER DESTABILIZING EFFECTS TO TREAT SICKLE CELL DISEASE” (VIRGINIA COMMONWEALTH UNIVERSITY, priority 2018, published 2024).

“And” between values parts separate entries of the source, which are not always exact repeats. Equal entries are not always repeated.

By AUC(0-inf) is commonly meant total exposure, with the tail of the curve extrapolated. High values mean more exposure, low ones less exposure. As usually defined, the Cmax is the peak of the concentration-time curve. Broadly, the half-life is how long it takes for the measured level to halve. High values mean slow loss, low ones fast loss.

Take `O=Cc1c(O)cccc1OCc1cccnc1F` [Comp 6, 2-((2-fluoropyridin-3-yl)methoxy)-6-hydroxybenzaldehyde]: the “Hb Modification (%)” value on Hb [1] is on record as 73.8 ± 15.4%. Moreover, in series [2], the AUC(0-inf) is 180000 ng·h/mL and 728 µM·h; the Cmax was 12100 ng/mL and 49 µM; the half-life was 8.2 h. For the same compound, on Hb [3], the “Fixed Adducts (%)” value stood at 67.3 ± 12.1%, the “Unfixed Adduct (%)” value is listed as 67.1 ± 10.3% and the “Partitioning Ratio (%)” value worked out at 100.0 ± 2.8%.

Consider `O=Cc1c(O)cccc1OCc1cccnc1Cl` [Comp 7, 2-((2-chloropyridin-3-yl)methoxy)-6-hydroxybenzaldehyde], for which the “Hb Modification (%)” value on Hb [1] was found to be 73.91 ± 9.8%. Besides, at Hb [3], the “Fixed Adducts (%)” value was 59.6 ± 5.7%, the “Unfixed Adduct (%)” value turned out to be 60.2 ± 5.7% and the “Partitioning Ratio (%)” value is reported as 99.0 ± 3.1%.

Regarding `O=Cc1c(O)cccc1OCc1ncccn1` [Comp 11, 2-hydroxy-6-(pyrimidin-2-ylmethoxy)benzaldehyde], the “Hb Modification (%)” value on Hb [1] came to 98.1 ± 3.2%. At Hb [3], the “Fixed Adducts (%)” value is 88.2 ± 2.1%, the “Unfixed Adduct (%)” value is 87.7 ± 4.3% and the “Partitioning Ratio (%)” value amounted to 100.7 ± 3.0%.

As for `O=Cc1c(O)cccc1OCc1ccncc1` [Comp 3, 2-hydroxy-6-(pyridin-4-ylmethoxy)benzaldehyde], the “Hb Modification (%)” value on Hb [1] stood at 74.4 ± 10.6%. Besides, at Hb [3], the “Fixed Adducts (%)” value is 60.1 ± 3.0%, the “Unfixed Adduct (%)” value turned out to be 60.0 ± 3.3% and the “Partitioning Ratio (%)” value was found to be 100.1 ± 0.9%.

For `O=Cc1c(O)cccc1OCc1cncc(F)c1` [Comp 4, 2-((5-fluoropyridin-3-yl)methoxy)-6-hydroxybenzaldehyde], at Hb [1], the “Hb Modification (%)” value came to 92.9 ± 9.8%. Further, in series [2], the AUC(0-inf) is 831000 ng·h/mL and 3360 µM·h; the Cmax was 59800 ng/mL and 242 µM; the half-life is 5.9 h. Besides, at Hb [3], the “Fixed Adducts (%)” value stood at 85.9 ± 7.1%, the “Unfixed Adduct (%)” value stood at 88.8 ± 6.2% and the “Partitioning Ratio (%)” value was determined as 96.9 ± 5.73%.

With `O=Cc1c(O)cccc1OCc1cncnc1` [Comp 10, 2-hydroxy-6-(pyrimidin-5-ylmethoxy)benzaldehyde], the “Hb Modification (%)” value at Hb [1] is recorded as 100.0 ± 0.0%. Also, in series [2], the AUC(0-inf) is 693000 ng·h/mL and 3010 µM·h; the Cmax was 36200 ng/mL and 157 µM; the half-life was 4.7 h. Also, at Hb [3], the “Fixed Adducts (%)” value is reported as 94.8 ± 2.8%, the “Unfixed Adduct (%)” value is 96.3 ± 3.0% and the “Partitioning Ratio (%)” value was 98.5 ± 2.7%.

On to `O=Cc1c(O)cccc1OCc1ncccc1Cl` [Comp 8, 2-((3-chloropyridin-2-yl)methoxy)-6-hydroxybenzaldehyde], for which the “Hb Modification (%)” value on Hb [1] came out at 100.0 ± 0.0%. Besides, in series [2], the AUC(0-inf) was 269000 ng·h/mL and 1020 µM·h; the Cmax was 20000 ng/mL and 76 µM; the half-life is 9.5 h. At Hb [3], the “Fixed Adducts (%)” value was 85.6 ± 2.5%, the “Unfixed Adduct (%)” value is on record as 84.8 ± 7.5% and the “Partitioning Ratio (%)” value was found to be 101.3 ± 6.3%.
